For 68 compounds, EC50, IC50 and outcome results are on record in PubChem BioAssay AID179 (DTP/NCI, 2004).

The test concerns CEM cells HIV-1 protection, formazan growth assay. The experiment in a line: NCI AIDS Antiviral Assay. The settings on record: for IC50: measured here: growth of uninfected CEM cells. The gist of the method:
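Five concentrations of each compound were applied to infected and uninfected human CEM cells. Protection from HIV-1 was judged from growth measured with a soluble formazan assay.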

Active and inactive are the calls of the source.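 How the source made its calls: active means compounds giving half or more protection of infected cells from virus-caused growth loss, again on retest; inactive means the rest.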 Where a SMILES comes first, the peptide text is derived from it. The star is where a group is joined. Cbz = O=C(OCc1ccccc1)*; Bn = c1ccc(C*)cc1

As usually defined, the EC50 is the concentration at which the effect is half-maximal. By IC50 is commonly meant the point on the concentration scale where inhibition reaches its midpoint. With `c1ccc(Cc2nc3ccccc3[nH]2)cc1`, the EC50 was greater than 34.7 µM and the IC50 is greater than 34.7 µM.

For `COc1ccc(/C=N/n2cnc3c(c2=O)SC(=C(C#N)C#N)N3c2ccccc2)cc1`, the EC50 was greater than 6.17 µM and the IC50 was greater than 6.17 µM. For the compound `O=c1cc(O)c2ccccc2o1`, the EC50 is greater than 1550 µM and the IC50 is 617 µM. As for `CC[C@@]1(OC(=O)C(N)CCC(=O)O)C(=O)OCc2c1cc1n(c2=O)Cc2cc3ccccc3nc2-1` (stereo partly drawn), the EC50 is greater than 10 µM and the IC50 turned out to be 0.0145 µM.

As for `CCOC(=O)c1c(N)sc2c1CCCCC2`, the EC50 is greater than 95.5 µM and the IC50 is greater than 95.5 µM. On to `Cc1cc2c(cc1-c1cc3c(cc1C)C(C(C)C)=C(O)C(=O)/C3=C\Nc1c3ccccc3nc3ccccc13)/C(=C/Nc1c3ccccc3nc3ccccc13)C(=O)C(O)=C2C(C)C`, for which the EC50 is greater than 100 µM and the IC50 came out at 1.74 µM. For `OC1(C2(O)c3ccccc3-c3ccccc32)c2ccccc2-c2ccccc21` the same measures were greater than 72.4 µM and 41.7 µM. For `CC(C)N=C(NC#N)NS(=O)(=O)c1cnccc1Nc1ccc(Cl)cc1` the same measures were greater than 200 µM and greater than 200 µM. The matching figures for `N#Cc1c(-c2ccc(Cl)c(Cl)c2)c(-c2ccc(Cl)c(Cl)c2)nn(CC(=O)O)c1=O`: greater than 200 µM and 55 µM.

As for `CC1=NN(C(=O)Cc2ccccc2)C(=O)/C1=C\c1ccco1`, the EC50 is greater than 64.6 µM and the IC50 is greater than 64.6 µM. Turning to `COc1c(C(=O)/C(=N/Nc2cccc(Cl)c2)C(C)=O)c(O)c(OC)c2occc12`, the EC50 is greater than 200 µM and the IC50 turned out to be 85.1 µM. The matching figures for `COc1cc2c(cc1OC)C(C(CBr)CBr)N(C1CCCC1)CC2` (stereo not drawn): greater than 389 µM and greater than 389 µM. For `CCOC(=O)C(C)(C)C(OP(OCC)OCC)=C(C)C` the same measures were greater than 589 µM and greater than 589 µM. With `CC(=O)N(CN1C(=O)CCC1C(=O)O)c1ccccc1Cl` (stereo not drawn), the outcome was inactive. Consider `Cn1ccnc1Sc1c([N+](=O)[O-])ncn1C`, for which the EC50 is greater than 1050 µM and the IC50 is 7.94 µM. The matching figures for `COC(=O)C(Cc1ccc(O)cc1)NC(=O)C(COCc1ccccc1)NC(=O)OCc1ccccc1` (stereo not drawn) (Cbz-Ser(Bn)-Tyr-OMe; configuration not given here): greater than 200 µM and 30.2 µM. Take `O=C1[C@@H]2C(c3ccccc3[N+](=O)[O-])=[N+](c3ccccc3)O[C@@H]2C(=O)N1c1ccc(Cc2ccc(N3C(=O)[C@H]4C(c5ccccc5[N+](=O)[O-])=[N+](c5ccccc5)O[C@H]4C3=O)cc2)cc1`: the EC50 was greater than 8.51 µM and the IC50 was greater than 8.51 µM. Turning to `COc1cc(OC)c2c(c1)C(=O)c1ccccc1C2=O`, the outcome was inactive.

For `COC1CC(CC2CCC(C)C(C(C)C(=O)O)O2)OC2(OC(C)(C3CCC(C)(C4OC(C5OC(O)(CO)C(C)CC5C)CC4C)O3)CC2C)C1C` (stereo not drawn), the EC50 is 0.0575 µM and the IC50 is 0.537 µM. For `O=[N+]([O-])c1cc([As](=O)(O)O)ccc1F` the same measures were greater than 200 µM and greater than 200 µM.

For `CCCCCCCCNC(=S)/N=C/c1c(O)c2ccccc2oc1=O`, the EC50 was greater than 200 µM and the IC50 worked out at 38.9 µM.

For the compound `CCCCCN(CCCCC)/N=C/c1c2c(O)c3c(O)c(C)c4c(c3c1O)C(=O)C(C)(O/C=C/C(OC)C(C)C(OC(C)=O)C(C)C(O)C(C)C(O)C(C)/C=C/C=C(C)C(=O)N2)O4` (stereo not drawn), the EC50 is greater than 200 µM and the IC50 is 8.32 µM. As for `CC(C)(CCl)NC(=O)c1cccc(C(=O)NC(C)(C)CCl)n1`, the EC50 was greater than 28.8 µM and the IC50 is greater than 28.8 µM.

As to `CC(=O)NC(CS/N=N/c1nc[nH]c1C(N)=O)C(=O)O` (stereo not drawn), the EC50 is greater than 200 µM and the IC50 came out at 0.38 µM. On to `Cc1ccc(S(=O)c2cccs2)cc1` (stereo not drawn), for which the EC50 was greater than 1120 µM and the IC50 amounted to 182 µM.

Take `CC(=O)Oc1cc(C)cc2ccc(-c3ccc4cc(C)cc(OC(C)=O)c4c3OC(C)=O)c(OC(C)=O)c12`: the EC50 was greater than 200 µM and the IC50 worked out at 28.8 µM. The matching figures for `CCOC(=O)C(=O)Nc1c(C)cccc1C`: greater than 1120 µM and greater than 1120 µM. For `COC(=O)/C=C\C(C#N)(C#N)N=Cc1cccs1` the same measures were greater than 2 µM and 0.389 µM. For `CSC(=S)N(C)NC(=O)c1cccc(C(=O)NN(C)C(=S)SC)n1` the same measures were greater than 200 µM and greater than 200 µM. In the case of `O=c1cc(C(F)(F)F)c2cc3c4c(c2o1)CCCN4CCC3`, the EC50 was greater than 4.68 µM and the concentration for half-maximal inhibition (IC50) was greater than 4.68 µM. `O=C1C=CC2=C3c4cc(O)c(O)cc4CC3(O)COC2=C1O` (stereo not drawn): the EC50 was greater than 45.7 µM and the IC50 came out at 40.7 µM. The matching figures for `O=C1C2CCCC3CCCC(C(=O)N1NC1CCCCC1)C32` (stereo not drawn): greater than 200 µM and 107 µM.

Regarding `COC(=O)C1=C(C(=O)OC)C2(c3ccccc3)c3ccccc3C(=O)C1N2C1CCCCC1` (stereo not drawn), the EC50 was greater than 200 µM and the 50% inhibitory concentration (IC50) turned out to be 16.6 µM.

Take `Cc1ccc(Nc2cc(=O)[nH]c(=O)[nH]2)cc1CS`: the EC50 was greater than 200 µM and the IC50 is 93.3 µM. For `Cc1c(C2(c3cc(C(C)C)c(O)c(Br)c3C)OS(=O)(=O)c3ccccc32)cc(C(C)C)c(O)c1Br` the same measures were greater than 288 µM and 97.7 µM.

Take `CCCCCCCCCCN(CCCCCCCCCC)C(=O)COc1c2cc(C(C)(C)C)cc1Cc1cc(C(C)(C)C)cc(c1OCC(=O)N(CCCCCCCCCC)CCCCCCCCCC)Cc1cc(C(C)(C)C)cc(c1OCC(=O)N(CCCCCCCCCC)CCCCCCCCCC)Cc1cc(C(C)(C)C)cc(c1OCC(=O)N(CCCCCCCCCC)CCCCCCCCCC)C2`: the EC50 was greater than 50.1 µM and the IC50 was found to be 3.39 µM. For `NC(=O)c1cc2cc(O)c(O)cc2cn1` the same measures were greater than 209 µM and 12.6 µM. The matching figures for `NC1=NN(c2ccccc2)C(=O)C1/C(=N\NC(=O)c1cc2ccccc2cc1O)C(=O)Nc1cccc(C(F)(F)F)c1` (stereo not drawn): greater than 6.61 µM and greater than 6.61 µM. The matching figures for `O=C(O)/C=C\C(=O)Nc1ccc(S(=O)(=O)c2ccc(NC(=O)/C=C\C(=O)O)cc2)cc1`: greater than 562 µM and greater than 562 µM. As to `CN1CCN(C(=O)c2cccc3cccc(C(=O)O)c23)CC1`, the EC50 is greater than 832 µM and the IC50 was 724 µM. Consider `CCN(CC)c1ccc2cc3ccc(=[N+](CC)CC)cc-3oc2c1`, for which the EC50 is greater than 501 µM and the IC50 was determined as 0.158 µM. For `COc1ccc(C(SCC(N)C(=O)O)(c2ccc(OC)cc2)c2ccc(OC)cc2)cc1` (stereo not drawn) the same measures were greater than 200 µM and 31.6 µM. For `CCOC(=O)c1c(N)sc2c1C(C(=O)OCC)CC2` (stereo not drawn) the same measures were greater than 200 µM and 174 µM. As for `OC12c3ccccc3C1CCCCCCCCCC21OCCO1` (stereo not drawn), the result was inactive. On the same count and under the same terms, to `COC(=O)C1=C(C(=O)OC)SC(C(C(=O)OC)=C2SC3=C(CCCC3)S2)S1` belongs “inactive”. For `Cn1c(=O)n2n(c1=O)C1C(=CC2)C2C=CC1n1c(=O)n(C)c(=O)n12` (stereo not drawn), the EC50 is greater than 200 µM and the concentration for half-maximal inhibition (IC50) was greater than 200 µM. As to `O=C1Cc2ccccc2CCc2ccsc21`, the 50% effective concentration (EC50) was 64.6 µM and the IC50 was found to be 83.2 µM. The matching figures for `COc1ccc(/C=C2\CSC(=O)NC2=O)cc1OC`: greater than 891 µM and 240 µM. With `CCc1cccc(C(C)C)c1C1C(=O)C(=O)N(c2nc3ccccc3s2)C(=O)C1=O`, the outcome was inactive. On to `Nc1ccc(C(=O)N/C(=C\c2ccc3c(c2)OCO3)c2nc3[nH]c(=S)[nH]c(=O)c3[nH]2)cc1`, for which the outcome was inactive.

In the case of `Cc1cn(C2CC(n3ncnn3)C(CO)O2)c(=O)[nH]c1=O` (stereo not drawn), the outcome was inactive. On the same count and under the same terms, to `COc1ccc(CCNC=O)cc1OC` belongs “inactive”.

Turning to `CC(C)C12C=C3CCC4C(C)(C(=O)O)CCCC4(C)C3(CC1)OO2` (stereo not drawn), the EC50 was greater than 741 µM and the IC50 turned out to be 162 µM.

Take `COC1OC(C(C)Br)C2OC(C)(C)OC12` (stereo not drawn): the EC50 was greater than 200 µM and the IC50 was greater than 200 µM. On to `O=C1Cc2c(-c3ccc(Cl)cc3)cc(-c3ccccc3)nc2-c2ccccc2N1`, for which the EC50 was greater than 100 µM and the IC50 was 28.8 µM. For the compound `CC(=O)NCCC1CN(C(=O)/C=C\I)c2ccccc21` (stereo not drawn), the EC50 is greater than 200 µM and the IC50 was found to be 9.33 µM. The matching figures for `Cc1cccc(-n2cc(C#N)c3c(C)cc(C)nc32)c1`: greater than 100 µM and greater than 100 µM. For `CNC(=O)N(CCC#N)CCN(CCN(C(=O)NC)c1ccccc1)C(=O)NC` the same measures were greater than 200 µM and greater than 200 µM. For `CC(=O)/C(=C/c1ccccc1Br)C(=O)c1ccccc1` the same measures were greater than 57.5 µM and 22.4 µM. `CC(=O)OC1CCC2(C)C(CCC3C4CC=C(C(C)=O)C4(C)OC(=O)CC32)C1` (stereo not drawn): the result was inactive. On to `Cc1cc(S(=O)(=O)n2ccnc2Oc2ccc(N)cc2)c(SSc2cc(Cl)c(C)cc2S(=O)(=O)n2ccnc2Oc2ccc(N)cc2)cc1Cl`, for which the EC50 was greater than 100 µM and the IC50 was 21.9 µM. `O=C1C2CCCC3CCCC(C(=O)N1O)C32` (stereo not drawn): the EC50 is greater than 200 µM and the IC50 worked out at 39.8 µM. The matching figures for `Clc1ccc(CSc2cnnc3c(Br)cccc23)c(Cl)c1`: greater than 24.5 µM and greater than 24.5 µM.

Take `CC(=O)Nc1ccc(S(=O)(=O)Nc2ccc([N+](=O)[O-])cc2)cc1`: the EC50 was greater than 200 µM, the result was inactive and the IC50 is greater than 200 µM. For `Cn1c(=N)n(CC(=O)NC23CC4CC(CC(C4)C2)C3)c2ccccc21`, the EC50 is greater than 347 µM and the concentration for half-maximal inhibition (IC50) was found to be 66.1 µM. With `CC12c3ccccc3C(c3ccccc31)C1C(=O)OC(=O)C12` (stereo not drawn), the EC50 was greater than 135 µM and the IC50 came out at 21.4 µM. The matching figures for `S=c1[nH]c2ccccc2o1`: greater than 200 µM and 166 µM. For the compound `CC(=O)OCC1OC(NC(=S)CCSc2nc3ccccc3c(=O)n2-c2ccccc2)C(OC(C)=O)C(OC(C)=O)C1OC(C)=O` (stereo not drawn), the EC50 was greater than 200 µM and the 50% inhibitory concentration (IC50) stood at 28.2 µM.
